{"source": "paper PMC12521546", "about": "(Nature Communications, 2025)", "key": {"CnAcs1 [1]": {"target": "T1, CnAcs1 (Cryptococcus neoformans, UniProt J9VFT1)", "T1 sequence (J9VFT1 1-680)": "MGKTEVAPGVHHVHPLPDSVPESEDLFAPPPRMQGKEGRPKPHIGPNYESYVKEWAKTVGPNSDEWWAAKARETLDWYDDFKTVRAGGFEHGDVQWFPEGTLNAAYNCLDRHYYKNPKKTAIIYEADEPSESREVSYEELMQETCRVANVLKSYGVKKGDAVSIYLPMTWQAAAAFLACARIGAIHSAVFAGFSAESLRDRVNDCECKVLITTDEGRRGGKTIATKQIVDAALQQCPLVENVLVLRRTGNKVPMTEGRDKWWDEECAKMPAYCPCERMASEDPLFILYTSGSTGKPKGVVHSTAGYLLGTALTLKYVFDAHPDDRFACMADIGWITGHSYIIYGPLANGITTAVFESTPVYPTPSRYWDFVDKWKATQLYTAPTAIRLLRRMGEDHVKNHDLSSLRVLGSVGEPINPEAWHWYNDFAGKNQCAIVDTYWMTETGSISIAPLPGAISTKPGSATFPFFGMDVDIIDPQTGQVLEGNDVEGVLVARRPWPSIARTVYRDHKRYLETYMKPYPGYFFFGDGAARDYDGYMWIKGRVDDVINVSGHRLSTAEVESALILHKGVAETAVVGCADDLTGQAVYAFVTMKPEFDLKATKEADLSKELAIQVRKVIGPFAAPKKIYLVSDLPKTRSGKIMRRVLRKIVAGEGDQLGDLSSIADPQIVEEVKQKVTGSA", "test": "Acs coupled kinetic pyrophosphate", "assay_type": "biochemical"}, "[2]": {"test_system": "C. neoformans reference strain H99", "test": "MIC, modified CLSI micro-broth dilution, H99", "assay_type": "cell-based, Cryptococcus neoformans"}, "PfAcAS": {"test_system": "PfAcAS", "settings": "cited from earlier work"}, "CnAcs1 [3]": {"target": "T1, CnAcs1", "settings": "cited from earlier work; for IC50: read-out: IC50 CnAcs1, alkyl-AMP esters"}, "CaAcs2 [4]": {"target": "T2, CaAcs2 (Candida albicans, UniProt Q8NJN3)", "T2 sequence (Q8NJN3 1-671)": "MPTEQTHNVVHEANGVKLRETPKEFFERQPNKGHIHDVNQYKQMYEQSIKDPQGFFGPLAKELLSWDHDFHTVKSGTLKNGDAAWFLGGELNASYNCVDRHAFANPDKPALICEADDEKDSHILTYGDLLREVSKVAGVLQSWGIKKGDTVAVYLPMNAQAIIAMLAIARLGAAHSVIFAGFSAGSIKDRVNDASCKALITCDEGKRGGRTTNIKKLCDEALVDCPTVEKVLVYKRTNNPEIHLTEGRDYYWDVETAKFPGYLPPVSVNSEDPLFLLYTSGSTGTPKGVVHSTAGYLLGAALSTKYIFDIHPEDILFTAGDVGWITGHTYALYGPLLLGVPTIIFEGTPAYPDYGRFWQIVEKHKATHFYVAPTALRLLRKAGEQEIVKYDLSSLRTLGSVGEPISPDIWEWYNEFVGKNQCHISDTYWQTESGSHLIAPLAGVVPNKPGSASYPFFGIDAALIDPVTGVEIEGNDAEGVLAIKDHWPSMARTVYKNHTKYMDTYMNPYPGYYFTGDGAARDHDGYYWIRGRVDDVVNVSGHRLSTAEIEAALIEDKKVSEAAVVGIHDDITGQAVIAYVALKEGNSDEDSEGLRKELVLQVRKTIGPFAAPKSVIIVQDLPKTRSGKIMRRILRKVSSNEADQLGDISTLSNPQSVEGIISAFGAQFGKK", "settings": "read-out: IC50 CaAcs2; cited from earlier work"}, "Ca^CnAcs2": {"target": "T3, Ca^CnAcs2 (Candida albicans, UniProt Q8NJN3, A319M/F357Y/G320A/Q430M/V371T)", "T3 sequence (Q8NJN3 with tags, fused parts or gaps A319M/G320A/F357Y/V371T/V388A/Q430M)": "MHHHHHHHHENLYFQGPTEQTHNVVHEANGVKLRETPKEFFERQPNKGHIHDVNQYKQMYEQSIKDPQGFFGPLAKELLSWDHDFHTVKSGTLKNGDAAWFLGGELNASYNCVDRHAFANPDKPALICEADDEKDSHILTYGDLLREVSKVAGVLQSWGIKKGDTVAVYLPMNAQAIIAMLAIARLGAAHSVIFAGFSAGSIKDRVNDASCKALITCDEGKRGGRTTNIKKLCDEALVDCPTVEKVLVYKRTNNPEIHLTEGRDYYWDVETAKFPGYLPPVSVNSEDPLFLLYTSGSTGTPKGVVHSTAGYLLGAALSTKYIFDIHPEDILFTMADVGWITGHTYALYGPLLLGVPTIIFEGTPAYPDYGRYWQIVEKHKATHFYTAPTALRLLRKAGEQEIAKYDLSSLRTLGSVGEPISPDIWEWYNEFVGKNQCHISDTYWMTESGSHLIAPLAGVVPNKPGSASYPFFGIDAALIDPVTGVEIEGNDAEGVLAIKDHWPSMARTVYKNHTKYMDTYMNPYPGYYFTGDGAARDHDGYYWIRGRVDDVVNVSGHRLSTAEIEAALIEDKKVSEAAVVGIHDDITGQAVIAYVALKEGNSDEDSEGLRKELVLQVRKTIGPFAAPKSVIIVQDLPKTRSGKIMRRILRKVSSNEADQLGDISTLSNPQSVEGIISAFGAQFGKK", "test": "Acs assay, Ca^CnAcs2 mutant enzyme", "settings": "for IC50: read-out: IC50 Ca^CnAcs2"}, "CaAcs2 [5]": {"target": "T2, CaAcs2", "test": "Acs coupled kinetic assay, CaAcs2", "assay_type": "biochemical"}, "human ACSS2": {"target": "human ACSS2 (Homo sapiens, UniProt Q9NR19)", "sequence (Q9NR19 whole entry)": "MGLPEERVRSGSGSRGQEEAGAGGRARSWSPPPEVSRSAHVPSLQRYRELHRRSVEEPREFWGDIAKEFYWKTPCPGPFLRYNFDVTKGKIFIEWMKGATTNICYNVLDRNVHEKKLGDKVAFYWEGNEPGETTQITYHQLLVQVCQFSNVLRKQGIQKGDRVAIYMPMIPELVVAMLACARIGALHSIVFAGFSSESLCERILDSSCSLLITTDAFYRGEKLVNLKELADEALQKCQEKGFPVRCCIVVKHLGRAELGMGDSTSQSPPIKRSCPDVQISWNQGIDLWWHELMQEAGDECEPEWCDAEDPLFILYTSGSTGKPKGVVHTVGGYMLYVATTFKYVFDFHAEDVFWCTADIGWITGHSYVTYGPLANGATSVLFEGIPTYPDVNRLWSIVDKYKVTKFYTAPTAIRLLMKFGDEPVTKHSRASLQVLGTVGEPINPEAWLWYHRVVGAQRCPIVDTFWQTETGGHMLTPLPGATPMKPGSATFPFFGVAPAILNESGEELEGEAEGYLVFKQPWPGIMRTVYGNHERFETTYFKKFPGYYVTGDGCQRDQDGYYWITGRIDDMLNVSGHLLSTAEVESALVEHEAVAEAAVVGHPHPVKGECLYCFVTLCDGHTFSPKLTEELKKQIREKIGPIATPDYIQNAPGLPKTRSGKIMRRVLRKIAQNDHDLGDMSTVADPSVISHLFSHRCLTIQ", "test": "Acs coupled kinetic assay, human ACSS2", "assay_type": "biochemical"}}, "note": "Entries after “also recorded” stand apart in the source; their conditions may differ. Like-named read-outs stand apart in the source and are kept apart here.", "data": [{"smiles": "CN(Cc1cc(C2CC2)on1)C(=O)c1cccc(-c2ccccc2)c1", "note": "[compound 12]", "values": [{"measurement": "inhibition of CnAcs1 (in words)", "setting": "CnAcs1 [1]", "value": "no activity"}]}, {"smiles": "CC(C)OP(=O)(O)OCC1OC(n2cnc3c(N)ncnc32)C(O)C1O", "note": "(stereo not drawn) [isopropyl-AMP ester]", "values": [{"measurement": "inhibition of CnAcs1 (in words)", "setting": "CnAcs1 [1]", "value": "equivalent to that of the cyclopropyl-AMP ester"}]}, {"smiles": "CCN(CC)S(=O)(=O)c1ccc(Cl)c(C(=O)Nc2ccc3nc(C)sc3c2)c1", "note": "[MMV019721]", "values": [{"measurement": "inhibition of CnAcs1 (in words)", "setting": "CnAcs1 [1]", "value": "did not inhibit CnAcs1 below its solubility limit; also recorded: does not inhibit CnAcs1 at the maximum soluble concentration; also recorded: does not significantly inhibit CnAcs1"}, {"measurement": "antifungal activity against C. neoformans (in words)", "setting": "[2]", "value": "no activity"}, {"measurement": "kinetic mechanism of PfAcAS inhibition", "setting": "PfAcAS", "value": "competitive with ATP and uncompetitive with CoA"}]}, {"smiles": "COC(=O)c1cccc(N2N=C(C)C(C(=O)Nc3cccc(C(C)(F)F)c3)C2=O)c1", "note": "(stereo not drawn) [MTB-9655]", "values": [{"measurement": "inhibition of CnAcs1 (in words)", "setting": "CnAcs1 [1]", "value": "no activity against CnAcs1"}]}, {"smiles": "CN(Cc1ccon1)C(=O)c1cccc(-c2ccc(F)cc2)c1", "note": "[compound 7]", "values": [{"measurement": "inhibition of CnAcs1 (in words)", "setting": "CnAcs1 [1]", "value": "completely inactive"}]}, {"smiles": "CCCCOP(=O)(O)OCC1OC(n2cnc3c(N)ncnc32)C(O)C1O", "note": "(stereo not drawn) [butyl]", "values": [{"measurement": "decrease in potency relative to ethyl-AMP", "setting": "CnAcs1 [3]", "value": "> 50", "unit": "fold"}]}, {"smiles": "Nc1ncnc2c1ncn2[C@@H]1O[C@H](COP(=O)(O)OC2CC2)[C@@H](O)[C@H]1O", "note": "[cyclopropyl-AMP ester]", "values": [{"measurement": "IC50", "setting": "CnAcs1 [3]", "value": 9, "unit": "µM"}]}, {"smiles": "COc1ccc(-c2cccc(C(=O)N(C)Cc3cc(C4CC4)on3)c2)cc1", "note": "[compound 9]", "values": [{"measurement": "inhibition of CnAcs1 (in words)", "setting": "CnAcs1 [1]", "value": "activity that was similar to 1 and more potent than 2"}]}, {"smiles": "CCOP(=O)(O)OC[C@H]1O[C@@H](n2cnc3c(N)ncnc32)[C@H](O)[C@@H]1O", "note": "[ethyl-AMP]", "values": [{"measurement": "IC50", "setting": "CnAcs1 [3]", "value": 8, "unit": "µM"}, {"measurement": "IC50", "setting": "CaAcs2 [4]", "value": "11 ± 5", "unit": "µM"}, {"measurement": "IC50", "setting": "Ca^CnAcs2", "value": "19 ± 7", "unit": "µM"}]}, {"smiles": "O=C(NNC(=O)c1csnn1)c1ccc(Cl)cc1", "note": "[MMV084978]", "values": [{"measurement": "fold higher IC50 toward CnAcs1 than PfAcAS", "setting": "CnAcs1 [1]", "value": "~ 8 fold"}, {"measurement": "kinetic mechanism of CnAcs1 inhibition", "setting": "CnAcs1 [1]", "value": "uncompetitive"}, {"measurement": "kinetic mechanism of CnAcs1 inhibition", "setting": "CnAcs1 [1]; listed as MMV089478", "value": "uncompetitive inhibitor of CnAcs1"}, {"measurement": "fold higher IC50 toward CnAcs1 than PfAcAS", "setting": "CnAcs1 [1]; listed as MMV0894978", "value": 8, "unit": "fold"}, {"measurement": "Ki", "setting": "CnAcs1 [1]; read-out: Ki with CnAcs1, uncompetitive model, CoA varied", "value": 4.1, "unit": "µM"}, {"measurement": "inhibition of CaAcs2 (in words)", "setting": "CaAcs2 [5]", "value": "did not inhibit CaAcs2"}, {"measurement": "fold higher IC50 toward ACSS2 than PfAcAS", "setting": "human ACSS2", "value": 50, "unit": "fold"}, {"measurement": "MIC toward C. neoformans", "setting": "[2]; medium not stated", "value": 64, "unit": "µg/mL"}, {"measurement": "kinetic mechanism of PfAcAS inhibition", "setting": "PfAcAS", "value": "uncompetitive inhibitor with respect to ATP and CoA"}, {"measurement": "IC50", "setting": "PfAcAS; read-out: IC50 PfAcAS", "value": 0.37, "unit": "µM"}, {"measurement": "maximum inhibition of Ca^CnAcs2", "setting": "Ca^CnAcs2", "value": 93, "unit": "%"}, {"measurement": "IC50", "setting": "Ca^CnAcs2", "value": "88 ± 21", "unit": "µM"}]}, {"smiles": "CN(Cc1cccc(-c2ccc(F)cc2)c1)Cc1cc(C2CC2)on1", "note": "[compound 3]", "values": [{"measurement": "inhibition of CnAcs1 (in words)", "setting": "CnAcs1 [1]", "value": "no activity against CnAcs1"}]}, {"smiles": "CC(C)c1cc(CN(C)C(=O)c2cccc(-c3ccc(F)cc3)c2)no1", "note": "[compound 5]", "values": [{"measurement": "inhibition of CnAcs1 (in words)", "setting": "CnAcs1 [1]", "value": "eliminated inhibition entirely"}]}, {"smiles": "COP(=O)(O)OCC1OC(n2cnc3c(N)ncnc32)C(O)C1O", "note": "(stereo not drawn) [methyl-AMP ester]", "values": [{"measurement": "inhibition of CnAcs1 (in words)", "setting": "CnAcs1 [1]", "value": "completely inactive"}]}, {"smiles": "CCCOP(=O)(O)OC[C@H]1O[C@@H](n2cnc3c(N)ncnc32)[C@H](O)[C@@H]1O", "note": "[propyl]", "values": [{"measurement": "decrease in potency relative to ethyl-AMP", "setting": "CnAcs1 [3]", "value": 3, "unit": "fold"}]}, {"smiles": "Cc1cc(CN(C)C(=O)c2cccc(-c3ccc(F)cc3)c2)no1", "note": "[compound 6]", "values": [{"measurement": "inhibition of CnAcs1 (in words)", "setting": "CnAcs1 [1]", "value": "much less potent than 2"}, {"measurement": "inhibition at 100 µM", "setting": "CnAcs1 [1]; read-out: inhibition of CnAcs1", "value": 50, "unit": "%"}]}, {"smiles": "COc1ccccc1-c1cccc(C(=O)N(C)Cc2cc(C3CC3)on2)c1", "note": "[compound 10]", "values": [{"measurement": "inhibition of CnAcs1 (in words)", "setting": "CnAcs1 [1]", "value": "eliminated activity"}]}, {"smiles": "O=C(NCc1cc(C2CC2)on1)c1cccc(-c2ccc3c(c2)CCO3)c1", "note": "[compound 8]", "values": [{"measurement": "inhibition of CnAcs1 (in words)", "setting": "CnAcs1 [1]", "value": "no activity against CnAcs1"}]}]}
